One assay concerns JIMT-1 cells. The assay can be described thus: Cell viability of KIF18a-sensitive cell lines, JIMT-1 (Cell Titre-Glo, 7 days). The class given is cell-based. As to conditions: read-out: JIMT-1 IC50. Here is the method:
(§1) Cell lines were seeded as follows 24 hours before compound treatment: HCC15 (Korean Cell Line Bank) 600 cell/well, 95 μL of RPMI-1640 media supplemented with 100 units/mL penicillin, 100 units/mL streptomycin and 10% FBS; NIH:OVCAR-3 (ATCC), 1000 cell/well, 95 μL of RPMI-1640 media supplemented with 100 units/mL penicillin, 100 units/mL streptomycin, 0.01 mg/mL bovine insulin, and 20% FBS; JIMT-1 (Addexbio) 1000 cell/well, 95 μL of DMEM media supplemented with 100 units/mL penicillin, 100 units/mL streptomycin, and 10% FBS.
(§2) Test compounds were added to cells in a 20× dilution scheme by adding 5 μL of serially diluted compound to the plate, and the treated cells were incubated for an additional 7 days in a 37° C., 5% CO2 incubator. DMSO was used as the negative control (0% effect), and wells omitting cells were used as the positive control (100% effect). The cells were incubated for seven days, and cell viability determined via the Promega Cell Titre-Glo® Assay kit. Luminescence units were converted to ATP concentrations via an ATP standard curve (10 point, 2-fold dilution from 5 uM). % Inhibition was calculated for each well as: ([max−min]−[test−min])/[max−min]. IC50 values were calculated from concentration vs. % Inhibition data via a four-parameter variable slope model.

The next assay deals with hKIF18A (1-374) (Homo sapiens (Human), UniProt Q8NI77). The assay can be described thus: Inhibition of KIF18A microtubule-dependent ATPase activity (ADP-Glo). The class given is biochemical. The following applies: 4 nM hKIF18A (1-374). A digest of the protocol:
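Reaction was started with pre-formed microtubules and ATP (0.2 mg/mL and 2.0 mM in the added mix) and run 60 min at 28 °C. ADP was read by ADP-Glo luminescence, and IC50 came from a four-parameter fit of % inhibition.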

Another assay deals with HCC15 cells. Kind of assay: Cell viability of KIF18a-sensitive cell lines, HCC15 (Cell Titre-Glo, 7 days). The class given is cell-based. The following applies: read-out: HCC15 IC50. The procedure:
as §1, §2

Another assay concerns NIH:OVCAR-3 cells. Kind of assay: Cell viability of KIF18a-sensitive cell lines, NIH:OVCAR-3 (Cell Titre-Glo, 7 days). The class given is cell-based. The following applies: read-out: NIH:OVCAR3 IC50. The procedure: as §1, §2
The target of assay [1] is KIF18a-microtubule complex (Homo sapiens (Human), UniProt Q8NI77). The assay can be described thus: Binding kinetics to KIF18a-microtubule complex (global progress curve analysis). The following applies: for kon (on-rate from binding kinetics assay) / koff: KIF18A 0.25 nM, up to 24 hr; for koff: read-out: koff (off-rate from binding kinetics assay) (converted); for Ki: koff/kon, read-out: KI (determined from binding kinetic assay koff/kon). The procedure:
Compound binding kinetics parameters (kon and koff) were determined by the method of global progress curve analysis (GPCA). […] ADP product levels were determined by the Promega® ADP-Glo assay.

Setting [2] is: Homo sapiens, 168 h, JIMT-1, 7 days.

Read-outs that look alike come from different tables or passages of the source.

Chain of KIF18a-microtubule complex (Q8NI77 1-374, one chain of several): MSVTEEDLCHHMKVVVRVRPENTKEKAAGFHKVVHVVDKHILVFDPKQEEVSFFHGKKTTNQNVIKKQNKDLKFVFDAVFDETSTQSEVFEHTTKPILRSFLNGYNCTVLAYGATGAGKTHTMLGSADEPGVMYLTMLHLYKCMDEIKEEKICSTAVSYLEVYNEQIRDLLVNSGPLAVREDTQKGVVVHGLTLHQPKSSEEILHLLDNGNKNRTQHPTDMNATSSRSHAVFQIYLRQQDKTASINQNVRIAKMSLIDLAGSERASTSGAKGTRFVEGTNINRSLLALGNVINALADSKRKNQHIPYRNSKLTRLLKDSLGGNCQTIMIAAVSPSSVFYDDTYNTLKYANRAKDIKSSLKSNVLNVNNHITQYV
Chain of hKIF18A (1-374) (Q8NI77 1-374): as the sequence (Q8NI77 1-374, one chain of several) above

For the molecule `O=S(=O)(CCO)Nc1ccc(-n2cc(-c3cccc(C(O)C4CCCC4)n3)nn2)c(N2CCC3(CC2)CC3)c1` (single isomer, unassigned) [Compound 90a], the 50% inhibitory concentration (IC50) in the assay with JIMT-1 cells (JIMT-1, 7 days) was 11 nM; against hKIF18A (1-374) it was 5.2 nM; with HCC15 cells (HCC15, 7 days), 7.4 nM; in the assay with NIH:OVCAR-3 cells (NIH:OVCAR3, 7 days) it was 14 nM.
`Cc1cc(NC(=O)c2ccc(NS(=O)(=O)CCO)cc2N2CCC3(CC2)CC3)nc(N2CCC(F)(F)CC2)n1` [AMG650, 2-(6-azaspiro[2.5]octan-6-yl)-N-[2-(4,4-difluoropiperidin-1-yl)-6-methylpyrimidin-4-yl]-4-(2-hydroxyethanesulfonamido)benzamide, reference compound]: the 50% inhibitory concentration (IC50) in the assay on JIMT-1 cells (Homo sapiens, JIMT-1, 168 h) came to 130 nM; with HCC15 cells (HCC15, 168 h) it was 66 nM; with NIH:OVCAR-3 cells (Homo sapiens, OVCAR-3, 168 h), 100 nM.
In the case of `CS(=O)(=O)Nc1ccc(-c2nnc(-c3cccc(N4CCOCC4)n3)[nH]2)c(N2CCC3(CC2)CC3)c1` [Compound 2, N-(4-(5-(6-morpholinopyridin-2-yl)-4H-1,2,4-triazol-3-yl)-3-(6-azaspiro[2.5]octan-6-yl)phenyl)methanesulfonamide], the IC50 in the assay on JIMT-1 cells (setting [2]) turned out to be 480 nM. At hKIF18A (1-374), the midpoint of inhibition, the IC50, lay at 14 nM. In addition, the IC50 in the assay on HCC15 cells (168 h, HCC15, 7 days) was found to be 130 nM. In assay [1], the “kon (on-rate from binding kinetics assay)” value turned out to be 3890 M⁻¹ s⁻¹, the koff is 3.61e-05 s⁻¹, the Ki is 8.9 nM and the “disc. t1/2 (dissociation half-life ln(2)/koff)” value came to 5.5 h.
On to `CS(=O)(=O)Nc1ccc(-c2nnc(-c3cccc(N4CCC(F)(F)CC4)n3)[nH]2)c(N2CCC3(CC2)CC3)c1` [Compound 5, N-(4-(5-(6-(4,4-difluoropiperidin-1-yl)pyridin-2-yl)-1H-1,2,4-triazol-3-yl)-3-(6-azaspiro[2.5]octan-6-yl)phenyl)methanesulfonamide], for which the IC50 on hKIF18A (1-374) was found to be 6.6 nM. For the same molecule, in assay [1], the “kon (on-rate from binding kinetics assay)” value came to 16900 M⁻¹ s⁻¹, the koff was 2.53e-05 s⁻¹, the Ki is 1.5 nM and the “disc. t1/2 (dissociation half-life ln(2)/koff)” value came out at 7.6 h.
Taken in the same sequence, the figures for `Cc1cc(-c2cn(-c3ccc(NS(=O)(=O)CCO)cc3N3CCCCC3)nn2)nc(N2CC(F)(F)C2)c1` [Compound 70, N-(4-(4-(6-(3,3-difluoroazetidin-1-yl)-4-methylpyridin-2-yl)-1H-1,2,3-triazol-1-yl)-3-(piperidin-1-yl)phenyl)-2-hydroxyethane-1-sulfonamide] were 27 nM, 2500 M⁻¹ s⁻¹, 3.61e-05 s⁻¹, 15 nM and 5.4 h.
Consider `Cc1cc(-c2cn(-c3ccc(NS(=O)(=O)CCO)cc3N3CCC4(CC3)CC4)nn2)nc(N2CCC(F)(F)CC2)c1` [Compound 72, N-(4-(4-(6-(4,4-difluoropiperidin-1-yl)-4-methylpyridin-2-yl)-1H-1,2,3-triazol-1-yl)-3-(6-azaspiro[2.5]octan-6-yl)phenyl)-2-hydroxyethane-1-sulfonamide], for which the IC50 is 24 nM in the assay on JIMT-1 cells (setting [2]); 16 nM in the assay with HCC15 cells (168 h, HCC15, 7 days); 25 nM in the assay with NIH:OVCAR-3 cells (Homo sapiens, OVCAR-3, 168 h, NIH:OVCAR3, 7 days).
`O=S(=O)(CCO)Nc1ccc(-n2cc(-c3ccc(F)c(N4CCCCO4)n3)nn2)c(N2CCC3(CC2)CC3)c1` [Compound 154, N-(4-(4-(5-fluoro-6-(1,2-oxazinan-2-yl)pyridin-2-yl)-1H-1,2,3-triazol-1-yl)-3-(6-azaspiro[2.5]octan-6-yl)phenyl)-2-hydroxyethane-1-sulfonamide] showed an IC50 on hKIF18A (1-374) of 7.1 nM.
The same measure, in the same setting: to `O=S(=O)(Nc1ccc(-n2cc(-c3ccc(F)c(N4CCC(F)(F)CC4)n3)nn2)c(N2CCCCC2)c1)C1(CO)CC1` [Compound 157, N-(4-(4-(6-(4,4-difluoropiperidin-1-yl)-5-fluoropyridin-2-yl)-1H-1,2,3-triazol-1-yl)-3-(piperidin-1-yl)phenyl)-1-(hydroxymethyl)cyclopropane-1-sulfonamide] belongs 21 nM; to `O=C(O)c1cc(-c2cn(-c3ccc(NS(=O)(=O)CCO)cc3N3CCC4(CC3)CC4)nn2)nc(N2CCC(F)(F)CC2)n1` [Compound 158, 2-(4,4-difluoropiperidin-1-yl)-6-(1-(4-((2-hydroxyethyl)sulfonamido)-2-(6-azaspiro[2.5]octan-6-yl)phenyl)-1H-1,2,3-triazol-4-yl)pyrimidine-4-carboxylic acid], 3.8 nM.
On the same count and under the same terms, then `O=S(=O)(CCO)Nc1ccc(-n2cc(-c3nc(C4=CCC(F)(F)CC4)ccc3F)nn2)c(N2CCC3(CC2)CC3)c1` [Compound 159, N-(4-(4-(6-(4,4-difluorocyclohex-1-en-1-yl)-3-fluoropyridin-2-yl)-1H-1,2,3-triazol-1-yl)-3-(6-azaspiro[2.5]octan-6-yl)phenyl)-2-hydroxyethane-1-sulfonamide], with 14 nM; and `O=S(=O)(CCO)Nc1ccc(-n2cc(-c3cc(CO)nc(N4CCC(F)(F)CC4)n3)nn2)c(N2CCC3(CC2)CC3)c1` [Compound 160, N-(4-(4-(2-(4,4-difluoropiperidin-1-yl)-6-(hydroxymethyl)pyrimidin-4-yl)-1H-1,2,3-triazol-1-yl)-3-(6-azaspiro[2.5]octan-6-yl)phenyl)-2-hydroxyethane-1-sulfonamide], with 4.4 nM.
As for `Cc1ncc(-c2cn(-c3ccc(NS(=O)(=O)CCO)cc3N3CCC4(CC3)CC4)nn2)nc1C1=CCCC1` [Compound 161, N-(4-(4-(6-(cyclopent-1-en-1-yl)-5-methylpyrazin-2-yl)-1H-1,2,3-triazol-1-yl)-3-(6-azaspiro[2.5]octan-6-yl)phenyl)-2-hydroxyethane-1-sulfonamide], at hKIF18A (1-374), half-maximal inhibition (IC50) was put at 63 nM.
`O=S(=O)(CCO)Nc1ccc(-n2cc(-c3ccc(F)c(C4=CCC(F)(F)CC4)n3)nn2)c(N2CCC3(CC2)CC3)c1` [Compound 162, N-(4-(4-(6-(4,4-difluorocyclohex-1-en-1-yl)-5-fluoropyridin-2-yl)-1H-1,2,3-triazol-1-yl)-3-(6-azaspiro[2.5]octan-6-yl)phenyl)-2-hydroxyethane-1-sulfonamide] returned an IC50 against hKIF18A (1-374) of 20 nM.
Still for that read-out and setting: to `CS(=O)(=O)Nc1ccc(-c2nc(-c3cccc(N4CCOCC4)n3)no2)c(N2CCC3(CC2)CC3)c1` [Compound 163, N-(4-(3-(6-morpholinopyridin-2-yl)-1,2,4-oxadiazol-5-yl)-3-(6-azaspiro[2.5]octan-6-yl)phenyl)methanesulfonamide] belongs 3600 nM; to `CS(=O)(=O)Nc1ccc(-c2noc(-c3cccc(N4CCOCC4)n3)n2)c(N2CCC3(CC2)CC3)c1` [Compound 164, N-(4-(5-(6-morpholinopyridin-2-yl)-1,2,4-oxadiazol-3-yl)-3-(6-azaspiro[2.5]octan-6-yl)phenyl)methanesulfonamide], more than 30000 nM.
On the same count and under the same terms, then `CS(=O)(=O)Nc1ccc(-n2cc(-c3cccc(N4CCC(F)(F)CC4)n3)nn2)c(N2CC3CC3C2)c1` (stereo not shown) [Compound 165, N-(3-(3-azabicyclo[3.1.0]hexan-3-yl)-4-(4-(6-(4,4-difluoropiperidin-1-yl)pyridin-2-yl)-1H-1,2,3-triazol-1-yl)phenyl)methanesulfonamide], with 283 nM; and `O=S(=O)(CCO)Nc1ccc(-c2cn(-c3cnn(C4CCC(F)(F)CC4)c3)nn2)c(N2CCC3(CC2)CC3)c1` [Compound 166, N-(4-(1-(1-(4,4-difluorocyclohexyl)-1H-pyrazol-4-yl)-1H-1,2,3-triazol-4-yl)-3-(6-azaspiro[2.5]octan-6-yl)phenyl)-2-hydroxyethane-1-sulfonamide], with 2800 nM.
On hKIF18A (1-374), “N-(4-(4-(2-((3S,4R)-3,4-difluoropyrrolidin-1-yl)-6-methylpyrimidin-4-yl)-1H-1,2,3-triazol-1-yl)-3-(6-azaspiro[2.5]octan-6-yl)phenyl)-2-hydroxyethane-1-sulfonamide [Compound 107]” gave a half-inhibitory concentration (IC50) of 16 nM.
Still for that read-out and setting: then “N-(4-(4-(2-(cyclopentyloxy)-6-methylpyrimidin-4-yl)-1H-1,2,3-triazol-1-yl)-3-(6-azaspiro[2.5]octan-6-yl)phenyl)-2-hydroxyethane-1-sulfonamide [Compound 109]”, with 8.8 nM.

The values are drawn from patent US20230382889A1 (Volastra Therapeutics, Inc., priority 2022, published 2023).
